Test results as given in ChEMBL document CHEMBL2074372, “CHO/hPEPT1 cells overexpressing the human peptide transporter (hPEPT1) as an alternative in vitro model for peptidomimetic drugs” (J Pharm Sci, 1999).

Key:
[1] = target: T1, Solute carrier family 15 member 1 (Homo sapiens) (UniProt P46059); experiment: TP_TRANSPORTER: uptake in PEPT1-expressing CHO cells; type: functional, cell-based
T1 sequence (whole entry): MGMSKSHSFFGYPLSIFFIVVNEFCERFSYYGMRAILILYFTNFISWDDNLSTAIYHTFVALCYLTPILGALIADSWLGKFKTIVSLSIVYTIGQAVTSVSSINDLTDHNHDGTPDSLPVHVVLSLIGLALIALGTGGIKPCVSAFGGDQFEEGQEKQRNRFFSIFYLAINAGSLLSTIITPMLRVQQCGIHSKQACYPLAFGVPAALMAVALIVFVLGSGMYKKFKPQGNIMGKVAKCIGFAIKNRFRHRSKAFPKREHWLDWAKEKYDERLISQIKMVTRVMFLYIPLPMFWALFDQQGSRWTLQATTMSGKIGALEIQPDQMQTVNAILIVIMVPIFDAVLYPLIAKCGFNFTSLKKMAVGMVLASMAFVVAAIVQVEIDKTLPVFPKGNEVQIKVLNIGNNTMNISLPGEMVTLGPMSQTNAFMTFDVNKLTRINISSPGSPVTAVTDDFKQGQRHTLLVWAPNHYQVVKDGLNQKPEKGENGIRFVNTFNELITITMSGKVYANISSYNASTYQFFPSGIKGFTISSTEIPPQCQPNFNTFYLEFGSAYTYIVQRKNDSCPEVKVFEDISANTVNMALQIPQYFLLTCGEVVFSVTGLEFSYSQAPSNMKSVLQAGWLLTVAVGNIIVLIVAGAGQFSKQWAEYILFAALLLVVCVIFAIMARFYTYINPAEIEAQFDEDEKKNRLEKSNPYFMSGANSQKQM

[2] = target: T2, Solute carrier family 15 member 1 (Homo sapiens, UniProt P46059); experiment: TP_TRANSPORTER: inhibition of Gly-Sar uptake (Gly-Sar: 20 uM) in PEPT1-expressing CHO cells; type: functional, cell-based
T2 sequence (P46059 whole entry): T1 sequence (whole entry)

Compound	Activity [1]	IC50 [2] [mM]
N[C@@H](C(=O)N[C@@H]1C(=O)N2C(C(=O)O)=C(Cl)CS[C@H]12)c1ccccc1 [CEFACLOR ANHYDROUS]	substrate [+]	8.2
CC1=C(C(=O)O)N2C(=O)[C@@H](NC(=O)[C@H](N)C3=CCC=CC3)[C@H]2SC1 [CEPHRADINE]	substrate [+]	15.3
CCOC(=O)[C@H](CCc1ccccc1)N[C@@H](C)C(=O)N1CCC[C@H]1C(=O)O	–	4.5
C[C@](N)(Cc1ccc(O)c(O)c1)C(=O)O [METHYLDOPA]	–	152
N[C@@H](Cc1ccc(O)c(O)c1)C(=O)O [LEVODOPA]	–	141
